# System: previously untreated advanced renal cell carcinoma
# Experiment: IMmotion151 (NCT02420821) Phase 3 randomized trial, atezolizumab plus bevacizumab versus sunitinib, clinical outcomes by biomarker subgroup
# Format: in vivo, human
# Description: IMmotion151 (NCT02420821) was a multicenter, open-label, Phase 3, randomized controlled trial of atezolizumab plus bevacizumab (n=454) versus sunitinib (n=461) in patients with previously untreated advanced RCC (Rini et al. Lancet. 393: 2404-2415 (2019)). The study design, methods, and primary clinical findings from IMmotion151 have been reported previously (Rini et al. Lancet. 393: 2404-2415 (2019)).
# Briefly, previously untreated patients with unresectable locally advanced or metastatic renal cell carcinoma with any component of clear-cell or sarcomatoid histology were randomized to receive atezolizumab 1200 mg+bevacizumab 15 mg/kg (atezolizumab+bevacizumab) once every 3 weeks (n=454) or sunitinib 50 mg once daily (n=461; 4 weeks on, 2 weeks off). The co-primary endpoints were investigator-assessed progression-free survival (PFS) in patients with ≥1% expressing PD-L1 on immune cells (IC, PD-L1^+) and overall survival (OS) in the intent-to-treat (ITT) population.
# IMmotion151 (NCT02420821) was a multicenter, open-label, Phase 3, randomized controlled trial of atezolizumab plus bevacizumab (n=454) vs. sunitinib (n=461) in patients with previously untreated advanced renal cell carcinoma (Rini et al. Lancet. 393: 2404-2415 (2019)).
# RNA-seq data from the randomized Phase II trial IMmotion150 were processed as described above. Transcriptional signature scores were derived from T-effector and angiogenesis signatures (McDermott et al. Nat Med. 24: 749-757 (2018)) for each sample, and hazard ratios were calculated at various gene expression scores. Gene expression score cutoffs of 2.93 (40% prevalence) and 5.82 (50% prevalence) were defined for the T-effector and angiogenesis signatures in IMmotion150 based on a combination of prevalence and hazard ratio plateauing. These absolute thresholds were prospectively applied to the IMmotion151 data to classify tumors with high and low T-effector and angiogenesis signatures. Cox-proportional hazard regression models were fit to compare PFS in atezolizumab+bevacizumab or sunitinib-treated patients in gene expression high and low subsets.
# All analyses were conducted using Rv3.6.1. Unless otherwise stated, all comparisons for continuous variables use the two-sided Mann-Whitney test (R function wilcox.test) for two groups and the Kruskal-Wallis test (R function kruskal.test) for more than two groups. Dunn's post-hoc test was applied with Benjamini-Hochberg multiple testing correction for pairwise comparisons. For categorical variables, Pearson's Chi-squared test with continuity correction was used (R function chisq.test). Unless otherwise stated, false discovery rate (FDR)-adjusted p-values are reported. *: p<0.05; **: p<0.01; ***: p<0.001. Survival analyses were conducted using Cox-proportional hazard models using the R survival package (v 3.1.7). Log-rank p-values were reported for survival analyses including more than two groups. For all boxplots, the horizontal line represents the median. The lower and upper hinges correspond to the first and third quartiles. The upper whisker extends from the hinge to the largest value no further than 1.5*IQR from the hinge (where IQR is the inter-quartile range, or distance between the first and third quartiles). The lower whisker extends from the hinge to the smallest value at most 1.5*IQR of the hinge.
# [1] = tumors with CDKN2A/B alterations
smiles,measurement,setting,value
CCN(CC)CCNC(=O)c1c(C)[nH]c(/C=C2\C(=O)Nc3ccc(F)cc32)c1C [sunitinib],ORR,PBRM1 non-mutant tumors,27%
same,mPFS,PBRM1 non-mutant tumors,6.9 months
same,ORR,Proliferative cluster (#5),3.1%
same,mPFS,Stromal/Proliferative cluster (printed #5),5.2 months
same,objective response rate (ORR),T-effector/Proliferative cluster (#4),19.4%
same,mPFS,loss-of-function mutations in ARID1A,6.8 months
same,mPFS,loss-of-function mutations in KMT2C,7.0 months
same,Objective response rate,"sRCC (sarcomatoid RCC) patients, RECIST 1.1",14%
same,mPFS,tumors harboring PBRM1 mutations,11.2 months
same,ORR,[1],20%
same,complete responses,[1],0%
same,mPFS,[1],4.1 months
same,"PFS hazard ratio, Angiogenesis signature high vs low","within sunitinib treatment arm, 95% CI 0.47, 0.75",0.59
same,"PFS hazard ratio, PBRM1 mutant vs non-mutant tumors","within sunitinib-treated patients, 95% CI 0.51, 0.87",0.67

# — patent publication US20240410013A1, “METHODS AND COMPOSITIONS FOR CLASSIFYING AND TREATING KIDNEY CANCER” (Genentech, Inc., priority 2021, published 2024)
